The source of these data is patent publication US20210052679A1, “PROBIOTIC DELIVERY OF GUIDED ANTIMICROBIAL PEPTIDES” (priority 2019, published 2021).

For assay [1], the system named is Staphylococcus aureus and Staphylococcus epidermidis. Description: In vitro bactericidal activity assay, targeted staphylococci. The class given is cell-based. The following applies: S. aureus and S. epidermidis. How it is done: The Ulp-1 protease-cleaved proteins were tested for antimicrobial assays against four strains of bacteria: Staphylococcus aureus, Staphylococcus epidermidis, Enterococcus faecalis and Bacillus subtilis. These four species were selected because they are gram positive and the AMPs plectasin and eurocin are specifically active against gram positive bacteria (Mygind et al. 2005, Oeemig et al. 2012). The component controls were free SUMO protein and synthetically produced A12C peptide. Vancomycin was used as the positive control. The standard protocol for a microtiter plate assay with serial dilution was used in which serial 2-fold dilutions of test peptide were made across a 96-well plate containing uniform bacterial inoculum across the peptide dilutions. After bacterial growth in the presence of peptide, cell viability was assayed with resazurin. Experiments with all peptides against all bacterial species were performed with >5 replicates each.

For assay [2], the system named is H. pylori. Description: L. lactis/H. pylori co-culture and qPCR on VacA gene. The following applies: 24 h co-culture with L. lactis expressing AMP/gAMP; FIG. 10. The class given is cell-based, Helicobacter pylori. As to the method:
In the co-cultures, different dilutions of L. lactis were used but each well had 10 μl of H. pylori culture (˜3000 CFUs). The L. lactis secreted AMP, gAMP or contained an empty expression vector. Alyteserin and CRAMP were the AMPs tested. These were constructed either genetically fused to the multimerin-derived guide peptide (guide AMP or gAMP) or not (AMP). The amount of H. pylori present in the co-culture at any given time point was measured by qPCR, using primers specific for the VacA gene itself, which codes for the receptor protein to which the gAMP binds. The entire experiment was run in triplicate and the growth of H. pylori after 24 h in the presence of L. lactis expressing various AMPs or gAMPs is shown in FIG. 10.
L. lactis AMP/gAMP clones were propagated from glycerol stocks and grown in GM17 broth overnight with erythromycin (5 μg/ml) with no shaking. H. pylori stocks were first propagated on Blood-TS agar overnight with microaerobic condition and >5% CO2 environment. Then colonies from the plate were transferred to a TS broth with newborn calf serum (5%) and grown overnight under microaerobic condition and >5% CO2 environment. The L. lactis cultures were serially diluted in a 96-well culture plate with TSB broth to make up a volume of 100 μL. To each well, 10 μL of the overnight H. pylori culture was added and each well volume was brought up to 200 μL with more TS broth. The plate was left to grow overnight in a microaerobic environment with >5% CO2. After 24 h, well contents from the culture plate were transferred to a 96-well PCR plate. […] The qPCR was done using primers for VacA gene to quantify H. pylori (forward: 5′-[…]-3′ (SEQ ID NO:12), reverse: 5′-[…]-3′ (SEQ ID NO:13) and primers for acma gene for quantifying L. lactis. Standard curves for H. pylori and L. lactis were constructed by determining CT values for different dilutions of the overnight cultures of the respective bacteria (1/10, 1/100, 1/1000, 1/10000) in the qPCR plates, the CFUs for the dilutions were determined by plating on their respective agar plates.
In general terms: In qPCR the cycle at which signal appears reflects the starting amount.

In assay [3] the test system is H. pylori. Description: Prophylactic control of H. pylori in mice (qPCR of stomach fluid). The class given is in vivo, mouse. The following applies: Day 12; probiotic pre-treatment before H. pylori challenge; FIG. 15. As to the method:
(§1) The L. lactis cultures were propagated overnight as described above. The overnight cultures were spun down at 4000 g for 15 min at 4° C. The pellets were resuspended in sterile PBS. H. pylori stocks were grown overnight on Blood-TS agar as described above and then scraped by a sterile loop and resuspended in sterile PBS. The either bacterial suspension were fed to the mice using 1.5 ga oral gavage needle not exceeding half their stomach volume (˜250 μL). The colony forming units (CFUs) of the resuspension being fed were determined by diluting the resuspension 1/1000 and 1/10000 times and plating on appropriate plates. Pre- and post-inoculation samples from the mouse stomach were collected by flushing their stomach with excess PBS (˜300 μL) and the stomach fluid was collected by reversing the oral gavage injection until the vacuum was maintained.
The supernatants were collected and plated in a 96-well plate and qPCR was performed with primers for the VacA gene to quantify for H. pylori and primers for the acma gene to quantify for L. lactis. Standard curves for each bacterium against their CT values were constructed by including different dilutions of the overnight cultures of the respective bacteria (1/10, 1/100, 1/1000, 1/10000) in the qPCR and plating those dilutions on respective plates to determine the corresponding CFU values. Each data point represents at least 3 replicate mice. […]

Assay [4] deals with H. pylori. The assay can be described thus: Therapeutic control of H. pylori in mice (qPCR of stomach fluid). The class given is in vivo, mouse. To be noted: at Day 10, within each AMP/gAMP pair.
Source text: These mice were inoculated with H. pylori and the H. pylori was allowed to establish itself in the mouse stomach for 3 days, with daily inoculations to ensure establishment. The mice were then given L. lactis secreting AMP or gAMP to therapeutically treat the H. pylori infection. Stomach samples were collected on Day 0 before H. pylori inoculation; resuspended H. pylori were fed by oral gavage once daily for 3 consecutive days; stomach samples were then collected on Day 5 to test for H. pylori presence and on Day 5 resuspended L. lactis were fed to the mice; subsequent stomach samples were collected on Day 8 and 10.
as §1
The supernatants were collected and plated in a 96-well plate and qPCR was performed with primers for the VacA gene to quantify for H. pylori and primers for the acma gene to quantify for L. lactis. Standard curves for each bacterium against their CT values were constructed by including different dilutions of the overnight cultures of the respective bacteria (1/10, 1/100, 1/1000, 1/10000) in the qPCR and plating those dilutions on respective plates to determine the corresponding CFU values. Each data point represents at least 3 replicate mice.
This was used to generate CFU/μl data from qPCR CT values in FIG. 14.

Assay [5] concerns E. coli. Description: E. coli viability with supernatants of Lactococcus lactis broth cultures. The class given is cell-based, Escherichia coli. To be noted: L. lactis culture supernatant, 4 hours of exposure; FIG. 8. The source says: This is reported in FIG. 8 as the survival of E. coli in the presence of broth culture of Lactococcus lactis secreting antimicrobial peptide with or without a guide peptide. […] It should be noted that the legend is in reverse order of the lines, top to bottom, with the upper line in the graph being the buffer control and the lower line being vancomycin. To obtain the results shown in FIG. 8, cultures of Lactococcus lactis containing either the empty pT1bin1 vector, pT1bin1 harboring the antimicrobial peptide laterosporulin, or pT1bin1 harboring laterosporulin genetically fused to the guide peptide from multimerin were centrifuged to remove bacterial cells and the resulting supernatants were added to separate starter cultures of E. coli to check for inhibition of E. coli growth. The starter culture used supplying all replicates consisted of 500 μl of overnight culture of E. coli diluted in 50 ml of LB broth. […] E. coli viability was measured by plating onto LB agar plates the cultures in each well after 4 hours of exposure to supernatant or antibiotic. The resulting colonies appearing on the plates were recorded, with the undiluted buffer control treatment being set to 100% and all other treatments being converted to a fraction of this value, as plotted on the y-axis.

The subject of assay [6] is Lactobacillus plantarum. The assay can be described thus: Off-target co-culture with L. lactis, qPCR. The following applies: 24 hours; probiotic at 100,000/μl CFU level; FIG. 11. The class given is cell-based. How it is done: L. lactis AMP/gAMP clones were propagated from glycerol stocks and grown in GM17 broth overnight with erythromycin (5 μg/ml) with no shaking. H. pylori stocks were first propagated on Blood-TS agar overnight with microaerobic condition and >5% CO2 environment. Then colonies from the plate were transferred to a TS broth with newborn calf serum (5%) and grown overnight under microaerobic condition and >5% CO2 environment. The L. lactis cultures were serially diluted in a 96-well culture plate with TSB broth to make up a volume of 100 μL. To each well, 10 μL of the overnight H. pylori culture was added and each well volume was brought up to 200 μL with more TS broth. The plate was left to grow overnight in a microaerobic environment with >5% CO2. After 24 h, well contents from the culture plate were transferred to a 96-well PCR plate. That PCR plate was sealed and heated for 15 min at 100° C. and chilled at 4° C. for 5 min. Then the plate was centrifuged at 2000 g for 2 min and the supernatant was used as the template for qPCR. The qPCR was done using primers for VacA gene to quantify H. pylori (forward: 5′-[…]-3′ (SEQ ID NO:12), reverse: 5′-[…]-3′ (SEQ ID NO:13) and primers for acma gene for quantifying L. lactis. Standard curves for H. pylori and L. lactis were constructed by determining CT values for different dilutions of the overnight cultures of the respective bacteria (1/10, 1/100, 1/1000, 1/10000) in the qPCR plates, the CFUs for the dilutions were determined by plating on their respective agar plates.
The experimental design was identical to that described above in Example 3, with the exception of the off-target bacterium replacing the targeted H. pylori. The off-target bacteria used were Lactobacillus plantarum (gram positive) and Escherichia coli (gram negative).

Turning to A12C-plectasin, the “toxicity/activity against targeted staphylococci” value in assay [1] is given as “highly active”.
Turning to “Alyteserin (GLKDIFKAGLGSLVKGIAAHVAN; alyteserin AMP)”, in assay [2], the “H. pylori in co-culture (qPCR on VacA gene)” value (from here on “H. pylori in co-culture”) is given as “not very effective unless fused to the guide peptide”. For the same molecule, the “H. pylori in mouse stomach fluid” value in assay [3] worked out at 2000 CFU/μl. The “more H. pylori with the AMP versus the gAMP” value in assay [4] is recorded as 15 fold.
In the case of “CRAMP (ISRLAGLLRKGGEKIGEKLKKIGQKIKNFFQKLVPQPE; cathelin-related anti-microbial peptide (CRAMP))”, the “H. pylori in co-culture” value in assay [2] is listed as “equally toxic”. Besides, the “more H. pylori with the AMP versus the gAMP” value in assay [4] was found to be 15 fold.
“Laterosporulin (ACQCPDAISGWTHTDYQCHGLENKMYRHVYAICMNGTQVYCRTEWGSSC; laterosporulin AMP)”: in assay [4], the “more H. pylori with the AMP versus the gAMP” value stood at 2.5 fold. In assay [5], the “viability of E. coli vs empty vector baseline” value is “significant decrease in viability”.
Turning to “MM1-Alyteserin (MQKMTDQVNYQAMKLTLLQKSGGGSGLKDIFKAGLGSLVKGIAAHVAN; MM1-alyteserin gAMP)”, the “H. pylori in mouse stomach fluid” value in assay [3] is listed as 1500 CFU/μl. In addition, the “Lactobacillus plantarum level after co-culture” value (“Lactobacillus plantarum level” below) in assay [6] is listed as 10,000 CFU/μl.

B1: MM1-CRAMP (protein)
chain: MQKMTDQVNYQAMKLTLLQKSGGGSISRLAGLLRKGGEKIGEKLKKIGQKIKNFFQKLVPQPE
modifications: MM1-CRAMP gAMP
As for B1, the “H. pylori in co-culture” value in assay [2] was “equally toxic”. The “Lactobacillus plantarum level” value in assay [6] was 2500 CFU/μl.

B2: MM1-Laterosporulin (protein)
chain: MQKMTDQVNYQAMKLTLLQKSGGGSACQCPDAISGWTHTDYQCHGLENKMYRHVYAICMNGTQVYCRTEWGSSC
modifications: MM1-laterosporulin gAMP
Consider B2, for which, in assay [5], the “viability of E. coli vs empty vector baseline” value is “no significant difference”. In addition, the “Lactobacillus plantarum level” value in assay [6] is given as 10,000 CFU/μl.
